For one test, the system named is MNS-induced AF. The note with it: cited from earlier work; for effect on MNS-induced AF: previous work.
In test [1] the test system is intrinsic cardiac (IC) neurons. Description: evoked action potentials of intrinsic cardiac neurons after local drug application (intracellular recording). The following applies: 10^-3 M, 1- to 2-s local pressure ejection; across all groups (control, PO, PO+RCV, PO+LCV). The test is classed as cell-based, guinea pig. As to the method: Intracellular voltage recordings from IC neurons derived from explanted IC ganglia placed in 35-37° C. Krebs-Ringer solution were obtained by impaling cells with 3 M KCl-filled glass micropipettes (40- to 80-Me resistance) using an Axoclamp 2B amplifier (Molecular Devices). Data were collected, digitized, and analyzed using pClamp 10.2 (Molecular Devices). Individual neurons were used for data analysis if their resting membrane potential (RMP) was −40 mV or less and produced action potentials (APs) with an overshoot of >20 mV. Input resistance was determined using 0.1- and 0.2-nA pulses (500 ms). Neuronal soma excitability was monitored by observing the response to a series of long depolarizing current pulses (0.1-0.6 nA, 500 ms). The number of evoked APs vs. stimulus intensity was determined to assess relative changes in excitability. Afterhyperpolarization (AHP) durations were analyzed to determine the time to reach 50% of the amplitude from the peak of the AHP to the RMP.
For each cell, after characterization of the basic electrophysiological properties, induced changes in the number of evoked APs by depolarizing pulses were again assessed immediately following a 1- to 2-s application of NE (10^-3 M; Sigma) or bethanechol (a muscarinic agonist, 10^-3 M; Sigma). […]

As for `CN1[C@@H]2CC[C@H]1C[C@@H](OC(=O)C(CO)c1ccccc1)C2` (stereo partly shown) [atropine], in the test with MNS-induced AF, the “effect on MNS-induced AF” value was “eliminated”. As to `C[N+](C)(C)CCCCCC[N+](C)(C)C` [Hexamethonium], the “number of AF responses to MNS stimulation” value in the test on MNS-induced AF (posttreatment, from 90% baseline) was 10%.

`NC[C@H](O)c1ccc(O)c(O)c1` [NE, norepinephrine]: in test [1], the “changes in IC neuronal sensitivity elicited by local application” value is reported as “less than that elicited by bethanecol”.

With `CC(C)(C)NC[C@H](O)COc1nsnc1N1CCOCC1` [timolol], the “effect on MNS-induced AF” value in the test with MNS-induced AF is reported as “modified”.

Source of the values: patent US11241579B2, “Monitoring and modulation of parasympathetic nervous system” (THE REGENTS OF THE UNIVERSITY OF CALIFORNIA, priority 2016, dated 2022).
